How the values were obtained:
[1] = system: HeLa (cervix epithelioid carcinoma); test: Antiproliferative activity against HeLa (XTT colorimetric method); format: cell-based; conditions: Homo sapiens, 72 h treatment
Method: (§1) The in vitro antiproliferative activity of MDS at 1 µM after 72 h treatments was evaluated by a colorimetric method against the human tumor cell lines HeLa (cervix epithelioid carcinoma) and MCF7 (breast adenocarcinoma). Compounds showing more than 40% inhibition at 1 µM in at least three independent assays were evaluated in a range of concentrations between 0.1 nM and 10 µM for the determination of half-maximal inhibitory concentrations (IC50) (Table 1). Paclitaxel, CA-4, and ABT-751 were used as references.
(§2) MCF7 (human breast carcinoma), SKOV-3 (human ovarian carcinoma), OVCAR-3 (human ovarian carcinoma), OVCAR-8 (human ovarian carcinoma), and HeLa (human cervical carcinoma) cell lines were cultured in Dulbecco’s Modified Eagle’s Medium (DMEM) (Gibco, Thermo Fischer Scientific) containing 10% (v/v) heat-inactivated fetal bovine serum (HIFBS) (Lonza-Cambrex, Karlskoga, Sweden), 2 mM L-glutamine (Lonza-Cambrex, Karlskoga, Sweden), 100 μg/mL streptomycin, and 100 IU/mL penicillin (Lonza-Cambrex) at 37 °C in humidified 95% air and 5% CO2. HT-29 (human colon carcinoma), IGROV-1 (human ovarian carcinoma), and A2780 (human ovarian carcinoma) cell lines were cultured in RPMI 1640 medium (Gibco, Thermo Fischer Scientific) supplemented with 10% HIFBS, 100 μg/mL streptomycin, and 100 IU/mL penicillin at 37 °C in humidified 95% air and 5% CO2 atmosphere. The presence of mycoplasma was routinely checked with MycoAlert kit (Lonza-Cambrex) and only mycoplasma-free cells were used in the experiments. Ovarian tumor cell lines were originally acquired from Dr Atanasio Pandiella from Centro de Investigación del Cáncer (CIC), Salamanca, Spain. HeLa, HT-29 and MCF7 tumor cell lines were provided by Dr Faustino Mollinedo from Centro de Investigaciones Biológicas Margarita Salas, Madrid, Spain.
(§3) MCF7, HeLa, and HT-29 cell proliferation, when treated with the corresponding compounds, were determined using the XTT (sodium 3’-[1(phenylaminocarbonyl)-3,4-tetrazolium]-bis(4-methoxy-6-nitro)-benzenesulfonic acid hydrate) cell proliferation kit (Roche Molecular Biochemicals, Mannheim, Germany). A freshly prepared mixture of XTT labeling reagent with 0.02% (v/v) PMS (N-methyl-dibenzopyrazine methyl sulfate) electron coupling reagent was added to cells (50 µL/well in 96-well plates, total volume of 160 µL/well). Cells were incubated under standard culture conditions for 4 h (MCF7 and HeLa) or 6 h (HT-29). The absorbance of the formazan product generated was measured at 450 nm using a multi-well plate reader. SKOV-3, OVCAR-3, OVCAR-8, IGROV-1, A-2780 cell proliferation, when treated with the corresponding compound, were determined using MTT (3-(4,5-dimethylthiazol-2-yl)-2,5-diphenyl-2H-tetrazolium bromide) (Sigma-Aldrich, St. Louis, MO, USA). MTT in Phosphate Buffer Saline (PBS) (5 mg/ml) was added to cells (110 µL/well in 24-well plates, total volume of 1110 µL/well). After 1 hour of incubation, the medium was aspirated, and formazan violet crystals were dissolved in dimethyl sulfoxide (DMSO) (500 µL/well). Absorbance was measured at 570 nm in a plate reader (Ultra Evolution, Tecan, Männedorf, Suiza). To determine cell viability, cells in exponential growth phase were seeded (100 µL/well in 96-well plates and 1000 µL/well in 24-well plates) with appropriate cell line concentration (1.5·10^4 cells/mL for MCF7 and HeLa, 3·10^4 cells/mL for HT-29, and 1·10^4 cells/mL for SKOV-3, OVCAR-3, OVCAR-8, IGROV-1, and A-2780) in complete RPMI 1640 or DMEM medium at 37°C and 5% CO2 atmosphere. After 24 h incubation, to allow cells to attach to the plates, all compounds were added at 1 µM concentration and the effect on the proliferation was evaluated 72 h post-treatment. Compounds showing antiproliferative effects at tested concentration were selected for IC50 calculation (50% inhibitory concentration with respect to the untreated controls) from 10^−5 to 10^−10 M concentration. Non-linear curves fitting the experimental data were carried out for each compound. […]

[2] = system: tubulin (microtubular protein isolated from calf brain); test: Tubulin Polymerization Inhibition (TPI) assay, turbidity; format: biochemical; conditions: 1.5 mg/mL microtubular protein; for TPI % 10 µM: compound at 10 µM
Method: The effect of all the synthesized compounds on the in vitro tubulin polymerization was evaluated at 10 µM. All the compounds that inhibited polymerization more than 30% were also assayed at 20 µM. IC50 values were calculated for those compounds inhibiting tubulin polymerization by at least 50% at 20 µM (Table 1 and Supplemental Figure S2).
Microtubular protein was isolated from calf brain according to the modified Shelanski method by two cycles of temperature-dependent assembly/disassembly and stored at −80 °C. Before each use, protein concentration was determined by the Bradford method taking BSA as standard.
Tubulin polymerization was monitored using a Helios α spectrophotometer by measuring the increase in turbidity at 450 nm, caused by a shift from 4 °C to 37 °C, which allows the in vitro microtubular protein to depolymerize and polymerize, respectively. The assay was carried out in quartz cuvettes containing 1.5 mg/mL microtubular protein and the ligand (except for control cuvette with only DMSO at the same concentration) in a mixture of 0.1 M MES buffer, 1 mM EGTA, 1 mM MgCl2, 1 mM β-ME, and 1.5 mM GTP at pH 6.7 (final volume 500 µL). Cuvettes were preincubated at 20 °C for 30 min, to allow ligand binding to tubulin, and subsequently cooled on ice for 10 min. Then, the experiment starts at 4 °C to establish the initial baseline. The assembly process was initiated by a temperature shift to 37 °C and the turbidity produced by tubulin polymerization can be measured by an absorbance increase. After reaching a stable plateau, the temperature was switched back to 4 °C to return to the initial absorption values (to confirm the reversible nature of the monitored process and to determine whether or not the microtubular tubular protein has stabilized). The difference in amplitude between the stable plateau and the initial baseline of the curves was taken as the degree of tubulin polymerization for each experiment. Comparison with control curves under identical conditions but without ligands yielded TPI as a percentage value. All compounds were tested at 10 µM concentration. Compounds that inhibited tubulin polymerization by at least 30% at 10 µM were tested at 20 µM. IC50 values were calculated for compounds that inhibit tubulin polymerization by more than 50% at 20 µM. Compounds were dissolved in DMSO, and the final solvent concentration never exceeded 4% (v/v), which has been reported not to interfere with the assembly process. All the measurements were carried out in at least two independent experiments using microtubular protein from different preparations.

[3] = system: MCF7 (breast adenocarcinoma); test: Antiproliferative activity against MCF7 (XTT colorimetric method); format: cell-based; conditions: Homo sapiens, 72 h treatment
Method: as §1, §2, §3

| Compound | IC50 [1] [nM] | IC50 [2] [µM] | TPI % 10 µM [2] [%] | IC50 [3] [nM] |
| --- | --- | --- | --- | --- |
| COc1cc(N(C)S(=O)(=O)c2ccc(N(C)C)cc2)cc(OC)c1OC [Compound 29a] | 63 | > 20 | 40 | 30 |
| COc1ccc(S(=O)(=O)N(CC(=O)O)c2cc(OC)c(OC)c(OC)c2)cc1 [Compound 8] | > 1000 | > 20 | 0 | > 1000 |
| COc1ccc(S(=O)(=O)Nc2cc(OC)c(OC)c(OC)c2[N+](=O)[O-])cc1 [Compound 11] | > 1000 | > 20 | 10 | > 1000 |
| CCOC(=O)CNc1cc(S(=O)(=O)N(CC(=O)OCC)c2cc(OC)c(OC)c(OC)c2)ccc1OC [Compound 47] | > 1000 | > 20 | 0 | > 1000 |
| COc1cc(N(CC(=O)O)S(=O)(=O)c2ccc(N(C)C)cc2)cc(OC)c1OC [Compound 34] | > 1000 | > 20 | 6 | > 1000 |
| COc1ccc(S(=O)(=O)N(C)c2cc(OC)c(OC)c(OC)c2)cc1 [Compound 2a] | 71 | > 20 | 35 | 127 |
| COc1ccc(S(=O)(=O)N(Cc2ccccc2)c2cc(OC)c(OC)c(OC)c2)cc1N [Compound 45] | 25 | 3.7 | 75 | 48 |
| COc1ccc(S(=O)(=O)Nc2cc(OC)c(OC)c(OC)c2Br)cc1 [Compound 20] | > 1000 | > 20 | 0 | > 1000 |
| COc1ccc(S(=O)(=O)N(CC#N)c2cc(OC)c(OC)c(OC)c2)cc1 [Compound 6] | 143 | > 20 | 0 | 275 |
| COc1ccc(S(=O)(=O)N(Cc2ccccc2)c2cc(OC)c(OC)c(OC)c2)cc1 [Compound 9] | 750 | > 20 | 21 | 830 |
| COc1cc(N(C(=O)OCc2ccccc2)S(=O)(=O)c2ccc(N(C)C)cc2)cc(OC)c1OC [Compound 35b] | > 1000 | > 20 | 0 | > 1000 |
| COc1ccc(S(=O)(=O)N(CCBr)c2cc(OC)c(OC)c(OC)c2)cc1 [Compound 4] | 94 | > 20 | 30 | 340 |
| COc1ccc(S(=O)(=O)N(C)c2cc(OC)c(OC)c(OC)c2N(C)C)cc1 [Compound 19] | > 1000 | > 20 | 0 | > 1000 |
| COc1ccc(S(=O)(=O)N(CC#N)c2cc(OC)c(OC)c(OC)c2)cc1N [Compound 44] | 60 | > 20 | 5 | 8 |
| COc1ccc(S(=O)(=O)Nc2cc(OC)c(OC)c(OC)c2NC(=O)CNC(=O)OC(C)(C)C)cc1 [Compound 21] | > 1000 | > 20 | 0 | > 1000 |
| COc1ccc(S(=O)(=O)Nc2cc(OC)c(OC)c(OC)c2)cc1 [Compound 1a] | 240 | > 20 | 0 | 375 |
| COc1ccc(S(=O)(=O)n2cnc3c(OC)c(OC)c(OC)cc32)cc1 [Compound 24] | > 1000 | > 20 | 0 | > 1000 |
| CNc1ccc(S(=O)(=O)Nc2cc(OC)c(OC)c(OC)c2)cc1 [Compound 37] | 607 | > 20 | 7 | > 1000 |
| COc1ccc(S(=O)(=O)N(c2cc(OC)c(OC)c(OC)c2)S(=O)(=O)c2ccc(OC)cc2)cc1 [Compound 1b] | > 1000 | > 20 | 0 | > 1000 |
| CCOC(=O)CN(c1cc(OC)c(OC)c(OC)c1)S(=O)(=O)c1ccc(N(C)C)cc1 [Compound 33] | 99 | > 20 | 14 | 91 |
| CCN(c1cc(OC)c(OC)c(OC)c1)S(=O)(=O)c1ccc(OC)c(N)c1 [Compound 43] | 38 | > 20 | 37 | 14 |

Source: article PMC7918738, “Microtubule Destabilizing Sulfonamides as an Alternative to Taxane-Based Chemotherapy” (International Journal of Molecular Sciences, 2021)
